Laboratory results as given in patent publication US8962558B2, “Methods for reducing GnRH-positive tumor cell proliferation using the GnRH antagonist IN3” (priority 1997, dated 2015).
Where two headings read alike, the source gives them in different places.

Columns and labels:
[1] = system: BLM melanoma tumor cell line implant; type: in vivo, nude mice
Experimental: In one series of experiments, nude mice bearing human melanoma tumor cell line xenotransplants were treated for two weeks with 100 μg of Goserelin daily, while a second group of mice was administered 200 μg of Goserelin daily, with an additional daily supplement given by subcutaneous injection. […] The in vivo tumor growth has three predominant characteristics: mitotic activity, dedifferentiation, and infiltration of cells into the surrounding tissue and vessels.
Results for this study are depicted in FIG. 21. These observations are in line with the previously shown inhibition of Matrigel invasion of BLM cells under Zoladex treatment, as described above. A histological investigation of the tumor before and after treatment has confirmed this finding (results not shown).
In another set of experiments, ZOLADEX® treatment was administered to mice for a period of four to eight weeks, with an additional GnRH antagonist treatment to avoid any tumor proliferation (i.e. flare up) following cessation of the therapy and to avoid tumor cell receptor depletion.

[2] = system: human glioblastoma cell lines U-87MG or U-373MG, Kaposi sarcoma cell lines KSY-1 or KS-SLK, malignant melanoma cell line MV3 or BLM, medulloblastoma cell line …; assay: Proliferation assay on cell cultures (Example 3); type: cell-based; conditions: cell lines of Example 3 treated with the substance
Me15392 melanoma cells = assay: Cell proliferation studies, Me15392 cells; type: cell-based, human; conditions: 10^−11-10^−6 M, 7 days
Experimental: The antiproliferative action of GnRH agonists on melanoma cells is further investigated in another melanoma cell line (Me15392). These experiments have been carried out as described above for BLM cells (same GnRH agonist, same doses of the drug and same length of treatment, etc.). All proliferation experiments were performed in four to six replicates. The data obtained from three independent experiments were analyzed according to the Dunnett's test after one-way ANOVA.

BLM cells = assay: In vivo study in nude mice inoculated with malignant melanoma, low dosage experiment; conditions: 100 μg per mouse daily, 2-3 weeks
Experimental: Sixteen male nude mice were injected s.c. in the flank with 1×10^6 (0.2 ml/mouse) BLM cells. The treatment started the same day: Eight mice received daily 100 μg […]® per mouse in 200 μl saline. Eight control mice were treated with 200 μl saline each. The treatment lasted 2-3 weeks. Every 2 to 3 days the volume of the tumors was determined by caliper.

[3] = system: malignant gliomas U-87MG and U-373MG; assay: In vivo study with tumor-implanted nude mice (Example 4); conditions: daily dosages
Experimental: An effect of the treatment of tumor-implanted nude mice (Pinski et al., supra) each with one of the GnRH agonists Buserelin, Triptorelin, Goserelin, and Leuprorelin and each with one of the GnRH antagonists Cetrorelix® (SB-75), Antarelix®, Antide®, and Ramorelix® on the growth of malignant gliomas U-87MG and U-373MG was carried out using daily dosages and controls in nude mice using analysis techniques described for the determination of the efficacy of similar peptides in Pinski et al., supra.

U-87MG cells = type: cell-based, human; conditions: for inhibition versus controls: 7 days
Experimental: U-87MG cells were plated at a density of 1400 cells/cm^2 in […] in standard culture medium. Cells were allowed to attach and start growing for 3 days; the seeding media were then changed to experimental media. Cells were treated for 7 days with ZOLADEX® (10^−10-10^−6 M); medium was changed every two days. Following treatment, cells were collected and counted by hemocytometer. Data obtained from three independent experiments were analyzed according to the Dunnett's test after one-way ANOVA.

Q: With `CC(C)C[C@H](NC(=O)[C@@H](COC(C)(C)C)NC(=O)[C@H](Cc1ccc(O)cc1)NC(=O)[C@H](CO)NC(=O)[C@H](Cc1c[nH]c2ccccc12)NC(=O)[C@H](Cc1cnc[nH]1)NC(=O)[C@@H]1CCC(=O)N1)C(=O)N[C@@H](CCCNC(=N)N)C(=O)N1CCC[C@H]1C(=O)NNC(N)=O` [ZOLADEX®, D-Ser(tBu)^6Aza-Gly-LHRH] as the compound, how does the “reduction in tumor weight” value ([1]; 100 μg or 200 μg daily, after two weeks, both groups) read?
A: The value was 50%.

Q: And the “persistence of tumor growth inhibition despite cessation of treatment” value ([1]; 100 μg/day or 200 μg/day)?
A: Its value is roughly 4 weeks.

Q: What about the “growth inhibitory effect compared with 100 μg/day” value ([1]; 200 μg/day) of the same compound?
A: Its value is “even more powerful growth inhibitory effect”.

Q: And the “tumor growth once treatment has stopped” value ([1]; after two weeks (16 days) of treatment)?
A: The value was “rebound of tumor growth (flare up) is observed”.

Q: What about the “inhibition of BLM cell growth” value ([1]; mouse, in vivo) of the same compound?
A: Its value is “about 50%”.

Q: What about the “anti-proliferative effects in tumor cells” value [2] of the same compound?
A: Its value is “Significant anti-proliferative effects”.

Q: What about the cell proliferation (Me15392 melanoma cells) of the same compound?
A: The cell proliferation was “significant and dose-dependent inhibition of cell proliferation”.

Q: What about the “tumors smaller with respect to the controls” value (BLM cells) of the same compound?
A: The value was 15-20%.

Q: What about the “growth of malignant gliomas” value [3] of the same compound?
A: Its value is “Significant growth-inhibiting effects”.

Q: What about the inhibition versus controls (U-87MG cells; 10^−6M) of the same compound?
A: Its inhibition versus controls is “about 45%”.

Q: What about the inhibition versus controls (U-87MG cells; 10^−8M) of the same compound?
A: The inhibition versus controls was “about 23%”.

Q: What about the proliferation rate (U-87MG cells; significantly effective at 10^−8 to 10^−6 M) of the same compound?
A: Its proliferation rate is “significant decrease of the proliferation rate”.
